Here are results for 32 molecules from US20100063065A1 (Inpharmatica Limited, priority 2005, published 2010).

The first assay has as its target T1, PPARδ (Homo sapiens, UniProt Q03181).
T1 construct: fused to amino acids 147-441 of PPARδ downstream of CMV promoter; expressed in transfected cells; host or cells: HEK293 cells, transiently transfected with pFACMV-PPARδ using Fugene
T1 sequence (Q03181 147-441): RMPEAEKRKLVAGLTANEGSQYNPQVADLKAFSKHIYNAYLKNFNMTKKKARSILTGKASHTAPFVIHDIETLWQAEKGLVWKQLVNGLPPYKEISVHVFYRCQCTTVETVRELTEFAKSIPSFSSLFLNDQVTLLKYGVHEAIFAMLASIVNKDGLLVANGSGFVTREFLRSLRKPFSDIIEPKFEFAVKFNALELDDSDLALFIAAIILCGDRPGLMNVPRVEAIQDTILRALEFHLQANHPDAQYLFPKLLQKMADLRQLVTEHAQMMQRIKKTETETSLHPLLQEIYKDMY
The experiment in a line: Transactivation assay (PPARδ GAL4 assay) in transiently transfected HEK293 cells. The class given is cell-based. Conditions: luciferase reporter, Table 1. The method, boiled down:
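HEK293 cells transiently co-transfected with GAL4 DBD (aa 1-147)–PPARδ (aa 147-441) fusion and 5×GAL4-luciferase reporter, then exposed 24 h to compound (final 0-30 μM) in OptiMEM at 37° C. Luminescence read; activity as percent of GW501516 control, EC50 from sigmoidal dose-response fit.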
In general terms: In a reporter assay the amount or activity of a reporter protein is the signal.
Usually EC50 stands for the concentration that produces a half-maximal response. A high value points to lower potency in that assay. `CCc1cc(C(=O)c2ccc(Cl)c(Cl)c2)c(NC(=O)CSC(C)(C)C(=O)O)s1` [Example 29, 2-{[3-(3,4-Dichloro-benzoyl)-5-ethyl-thiophen-2-ylcarbamoyl]-methylsulfanyl}-2-methyl-propionic acid]: the concentration giving a half-maximal response (EC50) was below 100 nM. In turn, `CCc1cc(C(=O)c2ccc(OC(F)(F)F)cc2)c(NC(=O)CNC(CC(C)C)C(=O)O)s1` (centres unmarked) [Example 77, 2-({[5-Ethyl-3-(4-trifluoromethoxy-benzoyl)-thiophen-2-ylcarbamoyl]-methyl}-amino)-4-methyl-pentanoic acid] came in with an EC50 below 100 nM. The same measure, in the same setting: as for `CCc1cc(C(=O)c2ccc(Oc3ccccc3)cc2)c(NC(=O)CSCC(=O)O)s1` [Example 12, {[5-Ethyl-3-(4-phenoxy-benzoyl)-thiophen-2-ylcarbamoyl]-methylsulfanyl}-acetic acid], the figure is 100 to 1000 nM; as for `CCc1cc(C(=O)c2ccc(OC)cc2)c(NC(=O)CSc2cccc(OCC(=O)O)c2)s1` [Example 88, (3-{[5-Ethyl-3-(4-methoxy-benzoyl)-thiophen-2-ylcarbamoyl]-methylsulfanyl}-phenoxy)-acetic acid], 1000 to 30000 nM. Molecule `CCc1cc(C(=O)c2ccc(OC)cc2)c(NC(=O)C(C)SCC(=O)O)s1` (centres unmarked) [Example 72, {1-[5-Ethyl-3-(4-methoxy-benzoyl)-thiophen-2-ylcarbamoyl]-ethylsulfanyl}-acetic acid] gave a concentration for a half-maximal effect (EC50) of 100 to 1000 nM.

`CCc1cc(C(=O)c2ccc(-c3ccccc3)cc2)c(NC(=O)CC(C)(C)CC(=O)O)s1` [Example 37, 4-[3-(Biphenyl-4-carbonyl)-5-ethyl-thiophen-2-ylcarbamoyl]-3,3-dimethyl-butyric acid] gave an EC50 of 100 to 1000 nM. The same measure, in the same setting: in the case of `CCc1cc(C(=O)c2ccccc2)c(NC(=O)CSCC(=O)O)s1` [Example 14, [(3-Benzoyl-5-ethyl-thiophen-2-ylcarbamoyl)-methylsulfanyl]-acetic acid] it was 1000 to 30000 nM; in that of `CCc1cc(C(=O)c2ccc(OC(F)(F)F)cc2)c(NC(=O)CSc2ccc(OCC(=O)O)c(C)c2)s1` [Example 94, (4-{[5-Ethyl-3-(4-trifluoromethoxy-benzoyl)-thiophen-2-ylcarbamoyl]-methylsulfanyl}-2-methyl-phenoxy)-acetic acid], 100 to 1000 nM.

For the molecule `CCc1cc(C(=O)c2ccc(OC)nc2)c(NC(=O)CSCC(=O)O)s1` [Example 55, {[5-Ethyl-3-(6-methoxy-pyridine-3-carbonyl)-thiophen-2-ylcarbamoyl]-methylsulfanyl}-acetic acid], the half-maximal effective concentration (EC50) lay within 1000 to 30000 nM. Still for that read-out and setting: as for `CCc1cc(C(=O)c2ccc(Cl)cc2)c(NC(=O)c2ccc(OCC(=O)O)cc2)s1` [Example 97, {4-[3-(4-Chloro-benzoyl)-5-ethyl-thiophen-2-ylcarbamoyl]-phenoxy}-acetic acid], the figure is 100 to 1000 nM; as for `CCc1cc(C(=O)c2ccc(F)cc2)c(NC(=O)CC(C)(C)CC(=O)O)s1` [Example 20, 4-[5-Ethyl-3-(4-fluoro-benzoyl)-thiophen-2-ylcarbamoyl]-3,3-dimethyl-butyric acid], 1000 to 30000 nM.

Consider `CCc1cc(C(=O)c2ccc(OC(F)(F)F)cc2)c(NC(=O)c2ccc(SCC(=O)O)cc2)s1` [Example 103, {4-[5-Ethyl-3-(4-trifluoromethoxy-benzoyl)-thiophen-2-ylcarbamoyl]-phenylsulfanyl}-acetic acid], for which the EC50 lay within 100 to 1000 nM.

The assay is the same for the next values; noted with them: luciferase reporter, Table 2.
In turn, `CCc1cc(C(=O)c2ccc(OC(F)(F)F)cc2)c(NC(=O)C(C)N2CCC[C@@H]2C(=O)O)s1` (stereo partly drawn) [Example 123, (R)-1-{1-[5-Ethyl-3-(4-trifluoromethoxy-benzoyl)-thiophen-2-ylcarbamoyl]-ethyl}-pyrrolidine-2-carboxylic acid] had an EC50 below 100 nM.

On to `CCc1cc(C(=O)c2ccc(OC(F)(F)F)cc2)c(NC(=O)CN(C)[C@@H](C)C(=O)O)s1` [Example 198, (S)-2-({[5-Ethyl-3-(4-trifluoromethoxy-benzoyl)-thiophen-2-ylcarbamoyl]-methyl}-methyl-amino)-propionic acid], for which the concentration giving a half-maximal response (EC50) is below 100 nM. The same measure, in the same setting: as for `CCc1cc(C(=O)c2cc3ccccc3o2)c(NC(=O)CSCC(=O)O)s1` [Example 140, {[3-(Benzofuran-2-carbonyl)-5-ethyl-thiophen-2-ylcarbamoyl]-methylsulfanyl}-acetic acid], the figure is 1000 to 30000 nM; as for `CCc1cc(C(=O)c2ccc(OC(F)(F)F)cc2)c(NC(=O)CCSCC(=O)O)s1` [Example 194, {2-[5-Ethyl-3-(4-trifluoromethoxy-benzoyl)-thiophen-2-ylcarbamoyl]-ethylsulfanyl}-acetic acid], below 100 nM; as for `CCc1cc(C(=O)c2ccc(OC(F)(F)F)cc2)c(NC(=O)CN2CCC[C@H]2C(=O)O)s1` [Example 167, (S)-1-{[5-Ethyl-3-(4-trifluoromethoxy-benzoyl)-thiophen-2-ylcarbamoyl]-methyl}-pyrrolidine-2-carboxylic acid], 1000 to 30000 nM. The same measure, in the same setting: in the case of `CCc1cc(C(=O)c2ccc(OC(F)(F)F)cc2)c(NC(=O)C(C)SCC(=O)O)s1` (centres unmarked) [Example 106, {1-[5-Ethyl-3-(4-trifluoromethoxy-benzoyl)-thiophen-2-ylcarbamoyl]-ethylsulfanyl}-acetic acid] it was below 100 nM. For `CCc1cc(C(=O)c2ccc(OC(F)(F)F)cc2)c(NC(=O)CN(CC)[C@@H](C)C(=O)O)s1` [Example 125, (S)-2-(Ethyl-{[5-ethyl-3-(4-trifluoromethoxy-benzoyl)-thiophen-2-ylcarbamoyl]-methyl}-amino)-propionic acid], the EC50 lay in the range of 100 to 1000 nM. Same read-out and setting: in the case of `CCc1cc(C(=O)c2ccc(OC(F)(F)F)cc2)c(NC(=O)CCCC(=O)O)s1` [Example 104, 4-[5-Ethyl-3-(4-trifluoromethoxy-benzoyl)-thiophen-2-ylcarbamoyl]-butyric acid] it was 100 to 1000 nM. The molecule `CCc1cc(C(=O)c2ccc(OC(F)(F)F)cc2)c(NC(=O)CN[C@@H](CC)C(=O)O)s1` [Example 191, (S)-2-({[5-Ethyl-3-(4-trifluoromethoxy-benzoyl)-thiophen-2-ylcarbamoyl]-methyl}-amino)-butyric acid] had an EC50 of 100 to 1000 nM. For `CCc1cc(C(=O)c2ccc(OC(F)(F)F)cc2)c(NC(=O)CNC2(C(=O)O)CCCC2)s1` [Example 190, 1-({[5-Ethyl-3-(4-trifluoromethoxy-benzoyl)-thiophen-2-ylcarbamoyl]-methyl}-amino)-cyclopentanecarboxylic acid], the EC50 is below 100 nM.

On to `CCc1cc(C(=O)c2ccc(OC(F)(F)F)cc2)c(NC(=O)CN2[C@@H](C(=O)O)CC[C@@H]2C)s1` [Example 182, (2R,5S)-1-{[5-Ethyl-3-(4-trifluoromethoxy-benzoyl)-thiophen-2-ylcarbamoyl]-methyl}-5-methyl-pyrrolidine-2-carboxylic acid], for which the concentration giving a half-maximal response (EC50) is below 100 nM.

On to `CCc1cc(C(=O)c2ccc(OC(F)(F)F)cc2)c(NC(=O)CN2[C@@H](C(=O)O)CC[C@@H]2C(C)C)s1` [Example 185, (2R,5R)-1-{[5-Ethyl-3-(4-trifluoromethoxy-benzoyl)-thiophen-2-ylcarbamoyl]-methyl}-5-isopropyl-pyrrolidine-2-carboxylic acid], for which the concentration giving a half-maximal response (EC50) was below 100 nM. In turn, `CCc1cc(C(=O)c2cc(C)n(C)n2)c(NC(=O)CSCC(=O)O)s1` [Example 144, {[3-(1,5-Dimethyl-1H-pyrazole-3-carbonyl)-5-ethyl-thiophen-2-ylcarbamoyl]-methylsulfanyl}-acetic acid] displayed an EC50 of 1000 to 30000 nM.

The molecule `CCc1cc(C(=O)c2nc3ccccc3s2)c(NC(=O)CSCC(=O)O)s1` [Example 139, {[3-(Benzothiazole-2-carbonyl)-5-ethyl-thiophen-2-ylcarbamoyl]-methylsulfanyl}-acetic acid] showed an EC50 of 1000 to 30000 nM. In the case of `CCc1cc(C(=O)c2ccc(OC(F)(F)F)cc2)c(NC(=O)C(CC)SCC(=O)O)s1` (centres unmarked) [Example 109, {1-[5-Ethyl-3-(4-trifluoromethoxy-benzoyl)-thiophen-2-ylcarbamoyl]-propylsulfanyl}-acetic acid], the EC50 is below 100 nM.

`CCc1cc(C(=O)c2ccc(Cl)cc2)c(NC(=O)CSc2ccc(OCC(=O)O)cc2)s1` [Example 136, (4-{[3-(4-Chloro-benzoyl)-5-ethyl-thiophen-2-ylcarbamoyl]-methylsulfanyl}-phenoxy)-acetic acid] displayed an EC50 of 1000 to 30000 nM. Still for that read-out and setting: in the case of `CCc1cc(C(=O)c2ccc(OC(F)(F)F)cc2)c(NC(=O)[C@H](C)SCC(=O)O)s1` [Example 195, {(S)-1-[5-Ethyl-3-(4-trifluoromethoxy-benzoyl)-thiophen-2-ylcarbamoyl]-ethylsulfanyl}-acetic acid] it was below 100 nM. `CCc1cc(C(=O)c2ccc(OC(F)(F)F)cc2)c(NC(=O)C(CC)NCC(=O)O)s1` (centres unmarked) [Example 121, {1-[5-Ethyl-3-(4-trifluoromethoxy-benzoyl)-thiophen-2-ylcarbamoyl]-propylamino}-acetic acid] displayed an EC50 of 100 to 1000 nM. For `CCc1cc(C(=O)c2ccc(OC(F)(F)F)cc2)c(NC(=O)CN2[C@@H](C(=O)O)CC[C@@H]2c2ccc(F)cc2)s1` [Example 181, (2R,5R)-1-{[5-Ethyl-3-(4-trifluoromethoxy-benzoyl)-thiophen-2-ylcarbamoyl]-methyl}-5-(4-fluoro-phenyl)-pyrrolidine-2-carboxylic acid], the EC50 is below 100 nM. `CCc1cc(C(=O)c2ccc(OC(F)(F)F)c(Cl)c2)c(NC(=O)CNC(C)(C)C(=O)O)s1` [Example 171, 2-({[3-(3-Chloro-4-trifluoromethoxy-benzoyl)-5-ethyl-thiophen-2-ylcarbamoyl]-methyl}-amino)-2-methyl-propionic acid] had a half-maximal effective concentration (EC50) below 100 nM.
